Where two headings read alike, the source gives them in different places.
How the values were obtained:
[1] = test system: HSP90 client protein of EGFR, Her2, Met, Akt, c-Raf, Cpk4; assay: Protein expression analysis (western blotting), Compound 17; assay type: cell-based; conditions: 24 hours, FIG. 4
Protocol: Next, the cells were dispensed into 100 mm culture dishes (1×10^6/dish) and adhered to the bottom surface overnight. Compound 17 at a concentration of 0.05, 0.1, 0.5 or 1 μM was added to the cells, followed by further culture for 24 hours.
In addition, cells were treated with DMSO (1%) or geladinamycin (1 μM) as a control and cultured for 24 hours.
The cultured cells were harvested and lysed in ice-cold lysis buffer (23 mM Tris-HCl pH 7.6, 130 mM NaCl, 1% NP40, 1% sodium deoxycholate, 0.1% SDS (sodium dodecylsulfate)), and 30 μg of the lysate was separated by SDS-PAGE (SDS-polyacrylamide gel electrophoresis) and transferred to a PVDF membrane (Bio-Rad).
Membranes were blocked with TBST (Tween 20 containing Tris-Buffered Saline) containing 5% skim milk and incubated with the respective primary antibodies [EGFR (Epidermal growth factor receptor), Her2 (human epidermal growth factor receptor type 2), Met, N-cadherin, E-cadherin, α-tubulin, acetyl-α-tubulin, protein kinase B (Akt), c-Raf, Cdk4 (Cyclin-dependent kinase 4), HSP90, HSP70, PARP (Poly ADT-ribose Polymerase), caspase 3, cleaved caspase 3, truncated caspase 8, B-cell lymphoma 2 (Bcl-2), Bax or β-Actin, purchased from Cell Signaling Technology (USA)].
After binding to a secondary antibody conjugated with horseradish peroxidase, the protein was visualized by ECL (electrochemiluminescence, GE healthcare, USA).

LogP = assay type: physicochemical; conditions: called measured values of LogP
Protocol: All experimental data were analyzed using Prism software (version 5.0, Graphpad Software, San Diego, Calif.). In addition, tPSA (Topological Polar Surface Area) calculated using Chemdraw software and the measured values of LogP are shown in Tables 1 and 2 below.

H1975 [2] = assay: H1975 colony formation (clogenic assay); assay type: cell-based; conditions: 0.05 μM, 3 weeks, FIG. 3
Protocol: H1975 cells were treated with Compound 17 at a concentration of 0.05 or 0.5 μM for 3 weeks and then clogenic assay was performed.
First, RPMI1640 medium (10% FBS, 0.48% agar) was added to a 6-well plate and hardened, and then, 10000 cells (H1975) were dispensed in a medium containing RPMI1640 medium (10% FBS, 0.33% agar) and solidified. After solidification, the cells were treated with compound at a concentration of 0.05 or 0.5 μM for 24 hours, followed by culturing for 3 weeks, and then colony formation was confirmed using a crystal violet staining solution.

H1975 [3] = assay: MTS cell proliferation / survival assay; assay type: cell-based
Protocol: Sk-Br3 (Korean cell line bank), a breast cancer cell, and H1975 cell (ATCC), a nonsmall cell lung cancer, were cultured in RPMI 1640 containing 25 mM HEPES (4-(2-hydroxyethyl)-1-piperazineethanesulfonic acid) and RPMI 1640 containing L-glutamine (containing streptomycin ([…]), penicillin (100 units/mL) and 10% fetal bovine serum (FBS)).
The cells were cultured under a humidified atmosphere of 37° C. and 5% CO2.
Next, non-metastatic lung cancer cells were treated with Compound 17 and the cell proliferation rate or cell survival rate was measured by MTS [3-(4,5-dimethylthiazol-2-yl)-5-(3-carboxymethoxyphenyl)-2-2H-tetrazolium, inner salt] analysis.
Cells were dispensed in 96-well plates at 3000 cell/well (Sk-Br3) and 2000 cell/well (H1975), and 100 μL of the medium was added per well and then was incubated overnight.
Cell proliferation was evaluated using the Promega Cell Titer 96 Aqueous One Solution cell proliferation assay.
After compound and cell culture, 20 μL of assay substrate solution was added to each well and incubated at 37° C. for an additional 1 hour.
Cell proliferation was confirmed by measuring the absorbance at 490 nm using a microplate reader (Tecan Infinite F200 Proplate reader).

HSP90α = HSP90α (Homo sapiens (Human), UniProt P07900); assay: Fluorescence polarization assay, binding ability to HSP90, benzamide compounds; conditions: GA-FITC 100 nM; read-out: HSP90 FP) (IC50; nM)
Protocol: 1 M dithiothreitol (DTT), 10 mg/m: BGG (bovine gamma globulin) were added to hexafluorobenzene (HFB) buffer (20 mM HEPES pH 7.3, 50 mM KCl, 5 mM MgCl2, 20 mM Na2MoO4, 0.01% NP4O, 3rd distilled water) and mixed. Then, 100 nM […] (GA)-FITC (Fluorescein isothiocyanate) was added and reacted at room temperature for 10 minutes. Each 100 μL of the mixture was dispensed into the control wells of a 96-well plate, 2 μL of HSP90α was added to the remaining mixture, and each 100 μL of the other wells was dispensed. […] The binding ability of the compound to HSP90 was expressed as mP (millipolarization unit=1000 mP unit).

[4] = test system: HSP90 client proteins (Her2, EGFR, Met, Akt, c-Raf) and HSP70 in H1975 cells; assay: Analysis of protein expression (western blot), Compound 21f; assay type: cell-based
Protocol: Compound 21f having good efficacy was selected and HSP90 client protein proliferation effect in the same cell line was confirmed, in which the HSP90 client proteins were Her2 (human EGFR-related 2), EGFR (epidermal growth factor receptor), Met and c-Raf were used.
H1975 cells resistant to Gefitinib were cultured in a medium supplemented with 10% fetal bovine serum (FBS) for 24 hours, and the cells were detached, harvested and diluted with a RPMI 1640 medium so as to be 5×10^5 cells/well. Each 5 mL of the suspension was added to […] culture dish and cultured for 24 hours. Then, the medium was changed to the culture solution treated with each compound of concentration (21f: 0, 0.05, 0.1, 0.5 or 1 μM, GA: 1 μM), and cultured for 24 hours. After culture, the cells were harvested and centrifuged at 1300 rpm for 5 minutes at 4° C., and the supernatant was removed. The pellet was washed with phosphate buffered saline, centrifuged once again under the same conditions, and the supernatant was removed. Lysis buffer was added to the remaining pellet and lysed by vortexing at 5 minute intervals for 30 minutes. The supernatant was separated by centrifugation at 16000 rcf for 4 minutes at 4° C., and proteins were quantified using BCA ([…]) kit. SDS-PAGE (sodium dodecylsulfate-polyacrylamide gel electrophoresis) was performed using 10, 12% running gel and 4% stacking gel (10 mA per gel). The separated proteins were transferred to an immunoblot PVDF membrane (polyvinylidene fluoride membrane) at 100 V for 75 minutes. The membranes were blocked with 5% skim milk solution for 2 hours and then added a primary antibody diluted in the ratio of 1: 750-1,000 in 0.1% tween-20 solution and reacted at 4° C. for 12 hours. After washing three times with TBS-T (Tris-buffered saline and Tween 20 containing Tween 20) and detected with an image analyzer using ECL (enhanced chemiluminescence) solution.

H1975 cells = assay: MTS cell viability in H1975 cells resistant to Gefitinib; assay type: cell-based; conditions: H1975, 3 days
Protocol: To confirm the cell viability according to the concentration of the compound synthesized in H1975 cells (ATCC) resistant to Gefitinib, MTS [3-(4,5-dimethylthiazol-2-yl)-5-[…]carboxymethoxyphenyl)-2-(4-sulfophenyl)-2H-tetrazolium, inner salt] analysis was performed. When the cells were cultured so as to occupy 80% of the bottom of the culture dish, the cells were detached and diluted with RPMI 1640 medium to a concentration of 1.5×10^3 cells/well. Each 100 μL of the suspension was added to each well of a 96-well plate and cultured for 14 hours. Then, the medium was changed to the culture solution treated with compound of each concentration each concentration (1a-g: 0, 1, 5, 10, 30, 50 or 100 μM, 14a-I, 16a, b, 21a-f: 0, 0.01, 0.1, 1, 5, 10, 30, 50, 70 or 100 μM), and cultured for 3 days. Each 20 μL of the MTS solution was dispensed into each well and reacted for 1 hour at 37° C. in an incubator supplied with 5% CO2.

SMILES | HSP protein inhibition / degradation of HSP90 client protein ([1]; 0.05-1 μM) | concentration at which most of the client proteins were denatured [1] [nM] | logP (LogP) | colony formation of H1975 (H1975 [2]) | cell death (cell survival) (H1975 [3]; 72 hours, FIG. 2B) | IC50 (H1975 [3]; Homo sapiens, NCI-H1975, read-out: IC50 for H1975) [nM] | inhibition at 10 µM (H1975 [3]; Homo sapiens, NCI-H1975, read-out: Inhibition rate at 10 μM (%)) [%] | inhibition at 30 µM (H1975 [3]; Homo sapiens, NCI-H1975, read-out: Inhibition rate at 30 μM (%)) [%] | proliferation rate of the cells (H1975 [3]; non-small cell lung cancer cells, 1, 2 and 3 days, FIG. 2A) | IC50 (HSP90α) [nM] | expression of HSP90 client proteins ([4]; H1975, 0.05-1 μM, 24 hours, FIG. 5) | concentration at which expression of HSP70 was increased ([4]; H1975, 24 hours) [µM] | concentration at which expression was significantly decreased: EGFR ([4]; H1975, 24 hours) [µM] | concentration at which expression was significantly decreased: Her2, Met, and Akt ([4]; H1975, 24 hours) [µM] | EC50 (H1975 cells; read-out: H1975 (EC50; μM)) [µM] | EC50 (H1975 cells; read-out: H1975 EC50) [µM]
CC(C)c1cc(C(=O)N2CCN(C)CC2c2ccccc2)c(O)cc1O (stereo not shown) [Compound 17, (2,4-dihydroxy-5-isopropylphenyl)(4-methyl-2-phenylpiperazin-1-yl)methanone] | inhibited HSP protein in concentration-dependent manner | 500 | 3.8 | inhibited | cell death was also observed | 98000 | 72.1 | 77.6 | inhibited in a concentration-dependent manner | – | – | – | – | – | – | –
CCCNC(=O)c1ccc(CN(C)C(=O)c2cc(C(C)C)c(O)cc2O)cc1 [Compound 21f, 2,4-dihydroxy-5-isopropyl-N-methyl-N-(4-(propylcarbamoyl)benzyl) benzamide] | – | – | – | – | – | – | – | – | – | 5.3 | inhibited in a concentration-dependent manner | 0.5 | 0.1 | 0.5 | 0.42 | 0.42

Reference: patent US10464907B2, “Compound having HSP90 inhibitory activity or pharmaceutically acceptable salt thereof, and medical use thereof” (priority 2016, dated 2019)
